Where only a bound is given, the exact number is not on record here.

The results in this text go back to patent publication US20250205258A1 (priority 2022, published 2025).

For data set [1], the system named is HCT116 colorectal cancer cells xenografts. The data set is described as follows: In vivo antitumor activity, HCT116 xenografts (Efficacy Example 2). Also noted: species or system BALB/C nude mice. The following applies: 1a 10 mg/kg ip × 7, qod, 5-Fluorouracil 15 mg/kg ip × 7. From the text:
(§1) Experimental Method: The test animals were male SPF-grade BALB/C nude mice weighing 18 to 20 grams.
(§2) Experimental Procedure: Well-grown HCT116 colorectal cancer tumor masses were cut into uniform small pieces of approximately 3 mm in size under aseptic conditions. A cannula needle was used to inoculate one piece subcutaneously into the right axilla of each test mouse. Nine days after inoculation, the average tumor volume was approximately 113 to 119 mm^3. The animals were then regrouped based on tumor size, eliminating those with excessively large or small tumors, to ensure that the average tumor volume was consistent among the experimental groups. Administration by intraperitoneal injection was then initiated according to the following protocol, with a dosing volume of 0.2 mL per 20 grams of body weight:
(§3) From the 9th day of inoculation, the maximum tumor length (a, in mm) and the perpendicular maximum tumor width (b, in mm) were measured twice a week using a digital electronic caliper.
(§4) The tumor volume (TV) was calculated using the formula: TV=ab^2/2.
(§5) The relative tumor volume (RTV) was calculated using the formula: RTV=Vt/Vo, where Vo is the tumor volume measured at the time of cage distribution (i.e., day 1) and Vt is the tumor volume at each subsequent measurement.
(§6) On the 27th day after inoculation (day 19), the animals were euthanized, weighed, dissected to remove the tumor masses, and the tumor weights were measured.

Data set [2] shares this test system. The data set is described as follows: In vivo antitumor activity, HCT116 xenografts (Efficacy Example 3). The arrangement: species or system BALB/C nude mice. The following applies: 1c 1 mg/kg iv × 7, qod, 5-Fluorouracil 15 mg/kg ip × 7; for Animal weight (After tumor removal): nude mice, HCT116 xenograft; for RTV (d18): relative tumor volume; for TGI (%): tumor volume inhibition.
From the text: as §1, §2, §3, §4, §5, §6
This efficacy example employs the same test animals and experimental methods as Efficacy Example 2, with the only difference being that the average tumor volume was approximately 130 to 140 mm^3 on the 13th day after inoculation of HCT116 colorectal cancer tumor masses into the test mice. Subsequently, the animals were regrouped based on tumor size and administered the drug according to the same protocol as in Efficacy Example 2. The animals were euthanized on the 30th day after inoculation (i.e., day 18), and their body weights and tumor weights were measured after dissection.

Data set [3] concerns human colorectal cancer cell line HCT116. Nature of the data set: CCK-8 in vitro antitumor activity (Effect Example 1). Format: cell-based. The following applies: HCT-116, HCT116, CCK-8, 72 hours. As for the experimental part: (§7) The CCK-8 method described in “Methods for New Drug Pharmacological Research” (edited by Lv Qiujun, 2007: 242-243) was adopted.
(§8) The cell lines used were human lung adenocarcinoma cell line A549 and human colorectal cancer cell line HCT116, which were cryopreserved and passaged in the pharmacological laboratory of the Shanghai Institute of Pharmaceutical Industry. The culture medium was DMEM supplemented with 10% FBS and antibiotics.
(§9) Cells in logarithmic growth phase were seeded into 96-well plates at a density of 7×10^3 cells per well and incubated at 37° C. in a 5% CO2 environment for 24 hours to maintain a normal physiological pH.
(§10) After cell attachment, different concentrations of the test compounds, namely the bufalin derivatives 1a to 1l prepared in Example 1, as well as the compound doxorubicin, were added to triplicate wells, with 0.1% DMSO added as a control.
(§11) After 72 hours, 10 μL of CCK-8 cell counting kit was added to each well, and the plates were incubated again at 37° C. for 0.5 to 1 hour. The absorbance (OD) was read at 450 nm on a full-featured microplate reader (Biotek Synergy H2), and the concentration causing 50% cell growth inhibition (IC50) was calculated by simulation using GraphPad Prism software.

The test system of data set [4] is human lung adenocarcinoma cell line A549. The data set is described as above. Format: cell-based. The following applies: A549, CCK-8, 72 hours. As for the experimental part: as §7, §8, §9, §10, §11
Another data set has as its system 95D cells. The data set is described as follows: Cell scratch test, migration of 95D cells. In kind it is cell-based, human. The following applies: different concentrations, FIG. 1 and FIG. 2. As to the method: Test Method: Draw three parallel lines with a spacing of approximately 0.5 cm on the outer bottom surface of a 6-well plate. After evenly seeding the tumor cells 95D onto the plate (5×10^5 cells/well), create a cell scratch using a pipette. Wash the cells three times with phosphate-buffered saline (PBS) to remove the scratched-off cells. Then, add medium that has been pre-mixed with different concentrations of compound 1a or 1b.
Place the plate in a 37° C., 5% CO2 incubator for culturing. Sample the cells at 0, 12, 24, 36, and 48 hours, and take photographs under a microscope.
Using ImageJ software, measure the area and height of the scratch site. The average scratch width can be obtained by dividing the area by the height. Subtract the scratch width at the end of the experiment from the scratch width at the 0-hour point to obtain the distance of cell migration. Then, use this distance value to calculate the cell migration index (MI) according to the following formula:
Cell Migration Index(MI)=(Initial Blank Width−Blank Width at a Specific Time Point)/Initial Blank Width.

Another data set concerns the target hERG potassium channel (Homo sapiens, UniProt Q12809). The following applies: test concentration 30 μM.
In data set [5] the test system is human colon cancer cells HCT116. Nature of the data set: CCK-8 in vitro antitumor activity (Table 5). In kind it is cell-based. The following applies: for IC50: Homo sapiens, HCT-116, HCT116, CCK-8, 72 hours; for activity against HCT116 compared with doxorubicin: HCT116, versus doxorubicin. The text has this: (§12) Test Method: The CCK-8 method from “Methods for New Drug Pharmacological Research” edited by Lv Qiujun (2007: 242-243) was adopted.
(§13) Cell lines used: Human lung adenocarcinoma cells A549, human high-metastasis lung cancer cells 95D, and human colon cancer cells HCT116, which were cryopreserved and passaged by the Pharmacological Laboratory of the Shanghai Institute of Pharmaceutical Industry, were selected. The culture medium used was DMEM+10% FBS+antibiotics.
(§14) Cells in the logarithmic growth phase were taken and seeded into 96-well plates at a density of 7×10^3 cells per well. They were then incubated at 37° C. in a 5% CO2 environment for 24 hours to maintain a normal physiological pH.
(§15) After cell adhesion, different concentrations of the test compounds, namely the bufalin derivatives IVa to IVc prepared in Example 5, as well as the comparative compound doxorubicin, were added to three replicate wells, with 0.1% DMSO added to separate wells as a control.
(§16) After 72 hours, 10 μL of the CCK-8 cell counting kit was added to each well, and the plates were incubated again at 37° C. for 0.5 to 1 hour. The absorbance (OD) was read at 450 nm on a full-function microplate reader, Biotek Synergy H2, and the concentration causing 50% inhibition of cell growth (IC50) was calculated through simulation using GraphPad Prism software.

In data set [6] the test system is Human lung adenocarcinoma cells A549. Nature of the data set: CCK-8 in vitro antitumor activity (Table 5). Format: cell-based. The following applies: A549, CCK-8, 72 hours.
From the text: as §12, §13, §14, §15, §16

Data set [7] relates to human high-metastasis lung cancer cells 95D. The data set is described as follows: CCK-8 in vitro antitumor activity (Table 5). The following applies: for IC50: Homo sapiens, CCK-8, 72 hours. Format: cell-based.
From the text: as §12, §13, §14, §15, §16

hERG potassium channel, sequence (Q12809 whole entry): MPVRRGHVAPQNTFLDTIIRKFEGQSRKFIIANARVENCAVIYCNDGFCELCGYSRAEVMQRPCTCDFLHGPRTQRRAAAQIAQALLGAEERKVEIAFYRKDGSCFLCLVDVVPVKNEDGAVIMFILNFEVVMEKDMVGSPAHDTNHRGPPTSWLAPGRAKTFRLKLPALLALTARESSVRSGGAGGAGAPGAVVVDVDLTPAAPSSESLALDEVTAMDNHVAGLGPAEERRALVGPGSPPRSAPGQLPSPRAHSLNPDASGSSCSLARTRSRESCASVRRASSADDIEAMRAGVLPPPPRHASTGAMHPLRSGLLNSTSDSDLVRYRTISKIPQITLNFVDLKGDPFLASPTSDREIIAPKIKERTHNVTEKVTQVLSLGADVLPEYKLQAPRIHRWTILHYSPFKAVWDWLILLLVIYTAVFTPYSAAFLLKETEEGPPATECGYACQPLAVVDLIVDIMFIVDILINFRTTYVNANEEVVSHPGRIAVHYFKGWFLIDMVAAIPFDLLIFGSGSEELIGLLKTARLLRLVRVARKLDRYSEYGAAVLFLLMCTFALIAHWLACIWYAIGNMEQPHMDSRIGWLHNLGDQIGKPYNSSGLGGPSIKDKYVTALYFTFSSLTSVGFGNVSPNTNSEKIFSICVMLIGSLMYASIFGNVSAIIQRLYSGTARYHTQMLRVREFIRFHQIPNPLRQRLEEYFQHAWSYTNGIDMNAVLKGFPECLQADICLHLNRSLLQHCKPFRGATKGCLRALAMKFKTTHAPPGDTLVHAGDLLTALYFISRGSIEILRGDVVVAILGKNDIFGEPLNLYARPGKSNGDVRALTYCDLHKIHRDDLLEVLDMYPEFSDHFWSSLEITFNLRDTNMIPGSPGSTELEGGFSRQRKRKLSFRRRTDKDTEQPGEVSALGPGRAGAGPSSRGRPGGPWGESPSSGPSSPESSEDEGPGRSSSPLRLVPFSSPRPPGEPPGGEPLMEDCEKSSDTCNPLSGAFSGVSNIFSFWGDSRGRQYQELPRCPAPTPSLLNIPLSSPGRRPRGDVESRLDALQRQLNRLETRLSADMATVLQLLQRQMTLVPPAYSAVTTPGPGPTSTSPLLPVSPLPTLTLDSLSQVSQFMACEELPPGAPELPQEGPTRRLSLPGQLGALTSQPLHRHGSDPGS
Experimental for hERG potassium channel: Experimental Method: CHO-hERG cells were cultured in a 175 cm^2 flask until the cell density reached 60 to 80%. The culture medium was then removed, and the cells were washed once with 7 mL of Phosphate Buffered Saline (PBS). Subsequently, 3 mL of gentle cell detachment solution (Detachin) was added for digestion. Once the digestion was complete, 7 mL of culture medium was added to neutralize the solution. The cells were then centrifuged, and the supernatant was aspirated. To ensure a cell density of 2 to 5×10^6/mL, 5 mL of culture medium was added to resuspend the cells.
The entire process of forming single-cell high-impedance seals and whole-cell recording mode was automatically completed by the high-throughput, fully automated patch clamp system, namely the Qpatch instrument. After obtaining the whole-cell recording mode, the cells were clamped at −80 mV. Prior to applying a 5-second+40 mV depolarization stimulus, a 50-millisecond −50 mV prepulse was given, followed by a repolarization to −50 mV for 5 seconds, and then returning to −80 mV This voltage stimulus was applied every 15 seconds. After recording for 2 minutes, the extracellular solution was recorded for 5 minutes, and then the drug administration process began.
These stock solutions were then diluted 500-fold with extracellular solution to obtain the final concentrations required for testing.

Turning to `O=c1[nH]cc(F)c(=O)[nH]1` [5-Fluorouracil, reference compound], the “Animal weight (After tumor removal)” value worked out at 19.20 ± 1.84 g in [1] (nude mice, HCT116 xenograft) and 21.84 ± 1.52 g in data set [2]. Further, the “RTV (d18)” value in data set [1] (relative tumor volume, d18) worked out at 5.52 ± 0.81; in data set [2] it was 7.35 ± 1.55. The “TGI (%)” value in data set [1] (tumor volume inhibition) was found to be 56.16%; in [2], 59.37%.
Broadly, the IC50 is the midpoint of a concentration-inhibition curve. For `CCOP(=O)(CCN1CCC(NC(=O)O[C@H]2CC[C@@]3(C)[C@H](CC[C@@H]4[C@@H]3CC[C@]3(C)[C@@H](c5ccc(=O)oc5)CC[C@]43O)C2)CC1)OCC` [Compound 1b], the IC50 in data set [3] and in [4] was < 0.004 µM each time. Besides, the “inhibitory effect on the migration of 95D cells” value in the data set with 95D cells is “excellent anti-tumor migration effects”.
For the compound `CCOP(=O)(CCCN1CCC(NC(=O)O[C@H]2CC[C@@]3(C)[C@H](CC[C@@H]4[C@@H]3CC[C@]3(C)[C@@H](c5ccc(=O)oc5)CC[C@]43O)C2)CC1)OCC` [Compound 1c], in data set [2], the “Animal weight (After tumor removal)” value stood at 21.02 ± 3.08 g, the “RTV (d18)” value is recorded as 6.56 ± 1.79 and the “TGI (%)” value came out at 63.69%. Besides, the “Inhibition rate (hERG potassium channel)” value on hERG potassium channel amounted to 53.8±4.13%. Also, the concentration for half-maximal inhibition (IC50) in [3] was < 0.004 µM. Further, in data set [4], the IC50 was < 0.004 µM.
For the compound `CCOP(=O)(CN1CCC(NC(=O)O[C@H]2CC[C@@]3(C)[C@H](CC[C@@H]4[C@@H]3CC[C@]3(C)[C@@H](c5ccc(=O)oc5)CC[C@]43O)C2)CC1)OCC` [Compound 1d], the IC50 in data set [3] came to 0.024 µM; in data set [4] it was 0.037 µM.
For `CCCOP(=O)(CN1CCC(NC(=O)O[C@H]2CC[C@@]3(C)[C@H](CC[C@@H]4[C@@H]3CC[C@]3(C)[C@@H](c5ccc(=O)oc5)CC[C@]43O)C2)CC1)OCCC` [Compound 1e], the concentration for half-maximal inhibition (IC50) in [3] is 0.022 µM; in data set [4] it was 0.058 µM.
In the case of `C[C@]12CC[C@H](OC(=O)NC3CCN(CP(=O)(OC4CCC4)OC4CCC4)CC3)C[C@H]1CC[C@@H]1[C@@H]2CC[C@]2(C)[C@@H](c3ccc(=O)oc3)CC[C@]12O` [Compound 1f], the values for the IC50 in data set [3] and in data set [4] were 0.067 µM and 0.026 µM, respectively.
The corresponding values for `C[C@]12CC[C@H](OC(=O)NC3CCN(CP(=O)(OC4CCCC4)OC4CCCC4)CC3)C[C@H]1CC[C@@H]1[C@@H]2CC[C@]2(C)[C@@H](c3ccc(=O)oc3)CC[C@]12O` [Compound 1g] are 0.289 µM and 0.422 µM.
For `C[C@]12CC[C@H](OC(=O)NC3CCN(CP(=O)(OC4CCCCC4)OC4CCCCC4)CC3)C[C@H]1CC[C@@H]1[C@@H]2CC[C@]2(C)[C@@H](c3ccc(=O)oc3)CC[C@]12O` [Compound 1h] the same measures were 0.336 µM and 0.023 µM.
The corresponding values for `CC(C)OP(=O)(CN1CC[C@@H](NC(=O)O[C@H]2CC[C@@]3(C)[C@H](CC[C@@H]4[C@@H]3CC[C@]3(C)[C@@H](c5ccc(=O)oc5)CC[C@]43O)C2)[C@H](O)C1)OC(C)C` [Compound 1i] are 0.008 µM and 0.015 µM.
In the case of `CC(C)OP(=O)(CNC1CCN(C(=O)O[C@H]2CC[C@@]3(C)[C@H](CC[C@@H]4[C@@H]3CC[C@]3(C)[C@@H](c5ccc(=O)oc5)CC[C@]43O)C2)CC1)OC(C)C` [Compound 1j], the IC50 in [3] is 0.02 µM; in [4] it was 0.216 µM.
Consider `CO[C@H]1CN(C(=O)O[C@H]2CC[C@@]3(C)[C@H](CC[C@@H]4[C@@H]3CC[C@]3(C)[C@@H](c5ccc(=O)oc5)CC[C@]43O)C2)CC[C@H]1NCP(=O)(OC(C)C)OC(C)C` [Compound 1k], for which the IC50 in data set [3] came out at 0.143 µM; in data set [4], 0.239 µM.
For `CC(C)OP(=O)(CNC1CCN(C(=O)O[C@H]2CC[C@@]3(C)[C@H](CC[C@@H]4[C@@H]3CC[C@]3(C)[C@@H](c5ccc(=O)oc5)CC[C@]43O)C2)CC1F)OC(C)C` (some centres unmarked) [Compound 1l] the same measures were 0.12 µM and 0.283 µM.
As to `COc1cccc2c1C(=O)c1c(O)c3c(c(O)c1C2=O)C[C@@](O)(C(=O)CO)C[C@@H]3O[C@H]1C[C@H](N)[C@H](O)[C@H](C)O1` [Doxorubicin, reference compound], the IC50 in [5] is 0.019 µM; in data set [6] it was 0.008 µM; in [7], 0.115 µM; in data set [3], 0.054 µM; in [4], 0.92 µM.
On to `CC(C)OP(=O)(CN1CCN(C(=O)O[C@H]2CC[C@@]3(C)C(CCC4C3CC[C@]3(C)[C@@H](c5ccc(=O)oc5)CC[C@]43O)C2)CC1)OC(C)C` (some centres unmarked) [IVa], for which the IC50 in data set [5] came to 0.117 µM; in data set [6], 0.019 µM; in [7] it was 0.574 µM.
Turning to `CCOP(=O)(CN1CCN(C(=O)O[C@H]2CC[C@@]3(C)C(CCC4C3CC[C@]3(C)[C@@H](c5ccc(=O)oc5)CC[C@]43O)C2)CC1)OCC` (some centres unmarked) [IVb], the “activity against HCT116 compared with doxorubicin” value in data set [5] was “comparable activity against HCT116 to doxorubicin”. Also, the IC50 in [5] amounted to 0.04 µM; in data set [6], 0.018 µM; in data set [7], 0.262 µM.
As to `CCOP(=O)(CCCN1CCN(C(=O)O[C@H]2CC[C@@]3(C)C(CCC4C3CC[C@]3(C)[C@@H](c5ccc(=O)oc5)CC[C@]43O)C2)CC1)OCC` (some centres unmarked) [IVc], the “activity against HCT116 compared with doxorubicin” value in [5] is given as “comparable activity against HCT116 to doxorubicin”. The values for the IC50 in [5], in data set [6] and in data set [7] were 0.027 µM, 0.011 µM and 0.072 µM, respectively. Further, the “activity against 95D compared with doxorubicin” value in data set [7] (versus doxorubicin) was “superior activity against 95D compared to doxorubicin”.
